Several values for one entry are separate records, joined by “and”; a condition that tells them apart may be missing. Equal entries are not always repeated. Where two headings read alike, the source gives them in different places.
Tests used:
human PR [1] = molecular target: T1, human PR (Homo sapiens, UniProt P06401); assay: PR agonist yeast lacZ reporter gene assay; conditions: for EC50: EC50, agonist assay
T1 sequence (P06401 1-933): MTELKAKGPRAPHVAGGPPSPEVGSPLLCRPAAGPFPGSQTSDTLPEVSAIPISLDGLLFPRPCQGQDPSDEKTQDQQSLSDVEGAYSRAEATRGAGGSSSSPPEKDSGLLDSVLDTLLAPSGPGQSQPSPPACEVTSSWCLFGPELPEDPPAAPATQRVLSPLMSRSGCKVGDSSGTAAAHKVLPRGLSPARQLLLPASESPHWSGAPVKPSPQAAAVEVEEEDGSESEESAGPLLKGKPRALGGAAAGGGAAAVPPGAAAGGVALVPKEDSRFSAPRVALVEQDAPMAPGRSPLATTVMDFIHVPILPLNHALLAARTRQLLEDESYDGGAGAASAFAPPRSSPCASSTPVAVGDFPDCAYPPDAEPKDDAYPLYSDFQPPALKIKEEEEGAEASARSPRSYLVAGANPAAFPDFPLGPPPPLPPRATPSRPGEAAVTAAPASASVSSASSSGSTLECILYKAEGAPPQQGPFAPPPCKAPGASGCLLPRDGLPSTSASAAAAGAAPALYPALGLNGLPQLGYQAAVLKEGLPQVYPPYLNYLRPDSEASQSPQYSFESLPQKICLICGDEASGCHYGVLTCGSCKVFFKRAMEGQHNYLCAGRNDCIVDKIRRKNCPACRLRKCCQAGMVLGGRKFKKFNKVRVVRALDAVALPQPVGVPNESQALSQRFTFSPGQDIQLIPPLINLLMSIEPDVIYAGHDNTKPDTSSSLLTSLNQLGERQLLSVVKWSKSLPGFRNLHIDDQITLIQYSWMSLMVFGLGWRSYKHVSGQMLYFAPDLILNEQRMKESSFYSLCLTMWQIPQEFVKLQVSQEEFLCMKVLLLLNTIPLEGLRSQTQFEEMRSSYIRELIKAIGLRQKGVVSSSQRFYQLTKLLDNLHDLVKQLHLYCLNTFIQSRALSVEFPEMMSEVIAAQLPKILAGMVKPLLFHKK

human AR [2] = molecular target: T2, human AR (Homo sapiens, UniProt P10275); assay: AR antagonist yeast reporter gene assay (competition with testosterone at EC50); format: cell-based; conditions: with testosterone […] nM
T2 sequence (P10275 1-920): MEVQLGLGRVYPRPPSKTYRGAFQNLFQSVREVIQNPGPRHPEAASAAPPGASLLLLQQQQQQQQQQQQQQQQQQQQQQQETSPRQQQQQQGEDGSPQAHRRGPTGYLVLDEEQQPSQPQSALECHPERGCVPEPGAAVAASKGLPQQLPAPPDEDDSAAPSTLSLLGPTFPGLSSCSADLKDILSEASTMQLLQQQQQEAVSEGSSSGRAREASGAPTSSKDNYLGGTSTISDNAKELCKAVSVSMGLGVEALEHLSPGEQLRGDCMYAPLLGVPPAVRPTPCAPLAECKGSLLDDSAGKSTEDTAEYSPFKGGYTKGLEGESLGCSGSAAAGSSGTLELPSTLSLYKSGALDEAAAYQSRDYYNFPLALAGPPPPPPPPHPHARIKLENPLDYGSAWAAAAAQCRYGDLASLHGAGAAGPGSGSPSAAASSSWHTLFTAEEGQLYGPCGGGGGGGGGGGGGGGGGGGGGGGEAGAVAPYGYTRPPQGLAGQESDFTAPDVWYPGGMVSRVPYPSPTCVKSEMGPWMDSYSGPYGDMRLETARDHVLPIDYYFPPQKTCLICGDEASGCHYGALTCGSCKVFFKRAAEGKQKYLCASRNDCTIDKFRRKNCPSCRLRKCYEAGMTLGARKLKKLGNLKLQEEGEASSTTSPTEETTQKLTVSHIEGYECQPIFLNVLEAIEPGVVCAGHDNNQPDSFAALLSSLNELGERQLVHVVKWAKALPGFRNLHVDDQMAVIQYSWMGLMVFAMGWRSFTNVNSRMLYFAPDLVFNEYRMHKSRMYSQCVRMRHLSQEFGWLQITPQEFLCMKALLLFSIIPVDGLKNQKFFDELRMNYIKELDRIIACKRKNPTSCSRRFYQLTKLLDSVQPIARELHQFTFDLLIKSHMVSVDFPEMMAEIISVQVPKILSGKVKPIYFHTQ

human AR [3] = molecular target: T2, human AR; assay: AR agonist yeast lacZ reporter gene assay; format: cell-based
human ERβ [4] = molecular target: T3, human ERβ (Homo sapiens, UniProt Q92731); assay: ERβ agonist yeast lacZ reporter gene assay; format: cell-based
T3 sequence (Q92731 whole entry): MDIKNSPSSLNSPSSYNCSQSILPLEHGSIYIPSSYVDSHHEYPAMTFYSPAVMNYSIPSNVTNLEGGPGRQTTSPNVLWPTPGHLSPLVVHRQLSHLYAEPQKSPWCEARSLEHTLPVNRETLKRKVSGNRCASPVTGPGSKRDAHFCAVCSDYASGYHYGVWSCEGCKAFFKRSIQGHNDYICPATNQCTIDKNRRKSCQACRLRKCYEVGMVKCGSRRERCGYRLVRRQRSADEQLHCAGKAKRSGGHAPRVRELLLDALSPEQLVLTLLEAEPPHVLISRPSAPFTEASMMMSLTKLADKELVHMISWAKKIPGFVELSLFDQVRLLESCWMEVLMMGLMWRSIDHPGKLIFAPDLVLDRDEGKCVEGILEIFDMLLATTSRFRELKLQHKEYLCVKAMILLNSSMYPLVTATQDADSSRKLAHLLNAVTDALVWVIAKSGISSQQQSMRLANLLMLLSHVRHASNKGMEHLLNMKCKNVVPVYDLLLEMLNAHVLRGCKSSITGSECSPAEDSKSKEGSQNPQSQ

human ERβ [5] = molecular target: T3, human ERβ; assay: ERβ antagonist yeast reporter gene assay (competition with E2 at EC50); conditions: co-exposure with E2; data not shown
human ERα = molecular target: T4, human ERα (Homo sapiens, UniProt P03372); assay: ERα agonist yeast lacZ reporter gene assay; format: cell-based; conditions: strain cwp1Δcwp2Δ
T4 sequence (P03372 1-595): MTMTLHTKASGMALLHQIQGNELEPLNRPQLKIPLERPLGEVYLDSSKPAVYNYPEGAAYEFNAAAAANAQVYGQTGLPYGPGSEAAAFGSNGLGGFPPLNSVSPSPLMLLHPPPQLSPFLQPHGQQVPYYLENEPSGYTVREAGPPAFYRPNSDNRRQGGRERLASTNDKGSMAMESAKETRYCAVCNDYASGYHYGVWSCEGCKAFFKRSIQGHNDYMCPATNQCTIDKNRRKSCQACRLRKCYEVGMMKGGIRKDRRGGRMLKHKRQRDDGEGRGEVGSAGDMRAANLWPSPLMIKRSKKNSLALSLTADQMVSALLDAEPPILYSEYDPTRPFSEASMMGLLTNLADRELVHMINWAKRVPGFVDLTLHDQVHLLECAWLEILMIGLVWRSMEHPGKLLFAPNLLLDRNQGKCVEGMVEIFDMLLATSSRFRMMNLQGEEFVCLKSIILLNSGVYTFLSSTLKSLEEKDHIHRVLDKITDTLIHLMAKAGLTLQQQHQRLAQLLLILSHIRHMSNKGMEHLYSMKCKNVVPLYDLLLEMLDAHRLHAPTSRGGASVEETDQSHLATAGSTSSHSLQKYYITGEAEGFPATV

human PR [6] = molecular target: T1, human PR; assay: PR antagonist yeast reporter gene assay (competition with PS at EC50); format: cell-based; conditions: strain cwp1Δpdr5Δ
[7] = agonist assay, strain W303a, read-out: EC50
[8] = agonist assay, strain cwp1Δcwp2Δ, read-out: EC50

Q: With `C[C@]12CCC(=O)C=C1CC[C@@H]1[C@@H]2[C@@H](O)C[C@]2(C=O)[C@@H](C(=O)CO)CC[C@@H]12` [AS, aldosterone] as the compound, how does the EC50 (human PR [1]; strain cwp1Δpdr5Δ) read?
A: 9700 nM

Q: What does the source list for `C[C@]12C[C@H](O)[C@H]3[C@@H](CCC4=CC(=O)CC[C@@]43C)[C@@H]1CC[C@@H]2C(=O)CO` [CS, corticosterone]?
A: EC50 (human PR [1]; strain cwp1Δcwp2Δ): 20100 nM; EC50 (human PR [1]; strain cwp1Δpdr5Δ): 18300 nM

Q: What does the source list for `C[C@]12CCC3=C4CCC(=O)C=C4CC[C@H]3[C@@H]1CC[C@@]2(O)CC#N` [DNG, Dienogest]?
A: constitutive expression of β-gal in reference CYC strains (CYC yeast strains): Neither DNG nor DRSP inhibited; EC50 (human PR [1]; strain cwp1Δcwp2Δ): 6100 nM; EC50 (human PR [1]; strain cwp1Δpdr5Δ): 860 nM; IC50 (human AR [2]; strain cwp1Δpdr5Δ): 38100 nM; IC50 (human AR [2]; strain pdr5Δpdr10Δ): 30200 nM; androgenic activity, fold weaker than earlier generation progestins with respect to minimal detection limit concentration (human AR [3]; AR-expressing mutant yeast strains): 100 fold; EC50 (human AR [3]; [7]): 9780 nM; EC50 (human AR [3]; agonist assay, strain cwp1Δpdr5Δ, read-out: EC50): 8100 nM; EC50 (human AR [3]; agonist assay, strain pdr5Δpdr10Δ, read-out: EC50): 2430 nM

Q: How did the “constitutive expression of β-gal in reference CYC strains” value (from here on “constitutive expression of β-gal”) (CYC yeast strains) turn out when `C[C@]12CCC(=O)C=C1[C@@H]1C[C@@H]1[C@H]1[C@@H]3[C@@H]4C[C@@H]4[C@@]4(CCC(=O)O4)[C@@]3(C)CC[C@@H]12` [DRSP, drospirenone] was run?
A: Neither DNG nor DRSP inhibited

Q: How did the EC50 (human AR [3]; EC50) turn out when `C[C@]12CC[C@@H]3c4ccc(O)cc4CC[C@H]3[C@@H]1CCC2=O` [E1, estrone] was run?
A: 900 nM and 860 nM and 96 nM

Q: Which EC50 (human ERβ [4]; [7]) does the source give for `C[C@]12CC[C@@H]3c4ccc(O)cc4CC[C@H]3[C@@H]1C[C@@H](O)[C@@H]2O` [E3, estriol] here?
A: 34 nM

Q: What about the EC50 (human ERβ [4]; [8]) of the same compound?
A: 1.22 nM

Q: And the Detection limit (human ERβ [4]; strain W303a)?
A: 0.1 µM

Q: And the Detection limit (human ERβ [4]; strain cwp1Δcwp2Δ)?
A: 10^−4 μM

Q: How did the “constitutive expression of β-gal” value (CYC yeast strains) turn out when `CC(C)C(=O)Nc1ccc([N+](=O)[O-])c(C(F)(F)F)c1` [Flu, flutamide] was run?
A: not affected

Q: What does the source list for `C#C[C@]1(O)C=C[C@H]2[C@@H]3CCC4=CC(=O)CC[C@@H]4[C@H]3CC[C@@]21CC` [GTD, gestodene]?
A: EC50 (human PR [1]; strain W303a): 220 nM; EC50 (human PR [1]; strain cwp1Δpdr5Δ): 0.996 nM; androgenic activity, fold weaker than earlier generation progestins with respect to minimal detection limit concentration (human AR [3]): 10 fold; EC50 (human AR [3]; EC50): 1060 nM and 400 nM

Q: With `C[C@]12CC[C@@H]3c4ccc(O)cc4C[C@@H](CCCCCCCCC[S+]([O-])CCCC(F)(F)C(F)(F)F)[C@H]3[C@@H]1CC[C@@H]2O` (some centres unmarked) [ICI, ICI 182, 780] as the compound, how does the “constitutive β-gal expression in control CYC strains” value (CYC yeast strains) read?
A: not repressed

Q: `Cc1c(-c2ccc(O)cc2)nn(-c2ccc(O)cc2)c1-c1ccc(OCCN2CCCCC2)cc1.Cl.Cl` [MPP, methyl-piperidino-pyrazoledihydrochloride hydrate] was tested. Which EC50 (human ERβ [4]; [7]) did it give?
A: 19200 nM

Q: What about the EC50 (human ERβ [4]; [8]) of the same compound?
A: 2730 nM

Q: And the antagonistic activity (human ERβ [5])?
A: undetectable

Q: With `CC#C[C@]1(O)CC[C@H]2[C@@H]3CCC4=CC(=O)CCC4=C3[C@@H](c3ccc(N(C)C)cc3)C[C@@]21C` [Mif, mifepristone] as the compound, how does the “constitutive expression of β-gal” value (CYC yeast strains) read?
A: not affected

Q: How did the “fold lower EC50 value for ERα than ERβ” value (human ERα) turn out when `CCCc1c(-c2ccc(O)cc2)nn(-c2ccc(O)cc2)c1-c1ccc(O)cc1` [PPT, propyl pyrazole triol] was run?
A: 2.5 fold

Q: And the “fold lower minimum detection limit for ERα than ERβ” value (human ERα)?
A: 10 fold

Q: What about the EC50 (human ERβ [4]; read-out: EC50) of the same compound?
A: 13700 nM and 2340 nM

Q: `CC(=O)[C@H]1CC[C@H]2[C@@H]3CCC4=CC(=O)CC[C@]4(C)[C@H]3CC[C@]12C` [PS, progesterone] was tested. Which Detection limit (human PR [1]; strain W303a) did it give?
A: 10 µM

Q: What about the Detection limit (human PR [1]; strain cwp1Δcwp2Δ) of the same compound?
A: 0.01 µM

Q: And the Detection limit (human PR [1]; strain cwp1Δpdr5Δ)?
A: 0.01 µM

Q: How did the Maximum inhibition (human PR [6]) turn out when `CC(=O)S[C@@H]1CC2=CC(=O)CC[C@]2(C)[C@H]2CC[C@@]3(C)[C@@H](CC[C@@]34CCC(=O)O4)[C@H]12` [Spi, spironolactone] was run?
A: 34.0%

Q: What about the “constitutive expression of β-gal” value (CYC yeast strains) of the same compound?
A: not affected

Q: Which EC50 (human PR [1]; strain cwp1Δcwp2Δ) does the source give for `C[C@]12CC[C@H]3[C@@H](CCC4=CC(=O)CC[C@@]43C)[C@@H]1CC[C@@H]2O` [TS, Testosterone] here?
A: 29000 nM

Q: What about the EC50 (human PR [1]; strain cwp1Δpdr5Δ) of the same compound?
A: 31000 nM

Q: And the EC50 (human ERβ [4]; EC50, agonist assay, strain cwp1Δcwp2Δ)?
A: 870 nM

Q: How did the “constitutive β-gal expression in control CYC yeasts” value (CYC yeast strains; 100 μM) turn out when `CC/C(=C(\c1ccccc1)c1ccc(OCCN(C)C)cc1)c1ccccc1` [Tam, tamoxifen] was run?
A: less than 60%

Q: `C[C@H]1CCC[C@H](O)CCCCCc2cc(O)cc(O)c2C(=O)O1` [Zer, zeranol] was tested. Which “constitutive expression of β-gal” value (CYC yeast strains; CYC W303a and corresponding CYC mutant strains) did it give?
A: not affected

— paper PMC7251871, “Construction of reporter gene assays using CWP and PDR mutant yeasts for enhanced detection of various sex steroids” (Genes and Environment, 2020)
